# Test results: ChEMBL document CHEMBL1201862, “PubChem BioAssay data set” (2004)
#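 Growth conditions: 96-well plates. Treatment: test compound, 48 hours, 5 concentrations. Analysis: linear interpolation between bracketing concentrations; unreached endpoints set to highest concentration. GI50: concentration for 50% inhibition of growth.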 The source made the active and inactive calls. Rule as the data show it: active = GI50 up to about 1.1 µM and inactive = higher. Peptide text beside a SMILES is read from it. * marks the point of attachment. Boc = CC(C)(C)OC(=O)*
# How the values were obtained:
# Test in all cases: NCI-60 cell line screen, 48 h
# K562 = tested on: K562
# SF-268 = tested on: SF-268
# NCI-H23 = tested on: NCI-H23
# CAKI-1 = tested on: CAKI-1
# MDA-MB-231 = tested on: MDA-MB-231
# NCI/ADR-RES = tested on: NCI/ADR-RES
# DU-145 = tested on: DU-145
# HOP-62 = tested on: HOP-62
# NCI-H522 = tested on: NCI-H522
# HCC 2998 = tested on: HCC 2998
# MOLT-4 = tested on: MOLT-4
# SNB-19 = tested on: SNB-19
# SK-MEL-2 = tested on: SK-MEL-2
# MDA-N = tested on: MDA-N
# 786-0 = tested on: 786-0
# HCT-116 = tested on: HCT-116
# A498 = tested on: A498
# OVCAR-4 = tested on: OVCAR-4
# TK-10 = tested on: TK-10
# MCF7 = tested on: MCF7
# IGROV-1 = tested on: IGROV-1
# M14 = tested on: M14
# HCT-15 = tested on: HCT-15
# PC-3 = tested on: PC-3
# UACC-257 = tested on: UACC-257
# RPMI-8226 = tested on: RPMI-8226
# RXF 393 = tested on: RXF 393
# OVCAR-8 = tested on: OVCAR-8
# COLO 205 = tested on: COLO 205
# MDA-MB-435 = tested on: MDA-MB-435
# NCI-H226 = tested on: NCI-H226
# SN12C = tested on: SN12C
# CCRF-CEM = tested on: CCRF-CEM
# OVCAR-5 = tested on: OVCAR-5
# NCI-H460 = tested on: NCI-H460
# SW-620 = tested on: SW-620
# HL-60 = tested on: HL-60
# EKVX = tested on: EKVX
# SF-295 = tested on: SF-295
# SF-539 = tested on: SF-539
# UO-31 = tested on: UO-31
# UACC-62 = tested on: UACC-62
# SK-MEL-5 = tested on: SK-MEL-5
# OVCAR-3 = tested on: OVCAR-3
# HT-29 = tested on: HT-29
# SK-MEL-28 = tested on: SK-MEL-28
# KM12 = tested on: KM12
# A549 = tested on: A549
# LOX IMVI = tested on: LOX IMVI
# ACHN = tested on: ACHN
# SK-OV-3 = tested on: SK-OV-3
# T47D = tested on: T47D
# U-251 = tested on: U-251
# SR = tested on: SR
# Malme-3M = tested on: Malme-3M
# SNB-75 = tested on: SNB-75
# HOP-92 = tested on: HOP-92
# Hs-578T = tested on: Hs-578T
# BT-549 = tested on: BT-549
structure (smiles),measurement,setting,value
CCN(CC)/C(SCc1ccccc1)=C(\C(Cl)=C(Cl)Cl)[N+](=O)[O-],GI50,K562,25.8 µM (inactive)
same,GI50,SF-268,18.4 µM (inactive)
same,GI50,NCI-H23,17.8 µM (inactive)
same,GI50,CAKI-1,28.2 µM (inactive)
same,GI50,MDA-MB-231,27.1 µM (inactive)
same,GI50,NCI/ADR-RES,17.1 µM (inactive)
same,GI50,DU-145,18 µM (inactive)
same,GI50,HOP-62,22 µM (inactive)
same,GI50,NCI-H522,16.6 µM (inactive)
same,GI50,HCC 2998,21.2 µM (inactive)
same,GI50,MOLT-4,13.5 µM (inactive)
same,GI50,SNB-19,28.9 µM (inactive)
same,GI50,SK-MEL-2,21.7 µM (inactive)
same,GI50,MDA-N,16.4 µM (inactive)
same,GI50,786-0,16 µM (inactive)
same,GI50,HCT-116,14.7 µM (inactive)
same,GI50,A498,13.6 µM (inactive)
same,GI50,OVCAR-4,15.6 µM (inactive)
same,GI50,TK-10,19.2 µM (inactive)
same,GI50,MCF7,16.8 µM (inactive)
same,GI50,IGROV-1,17.2 µM (inactive)
same,GI50,M14,15.9 µM (inactive)
same,GI50,HCT-15,25.5 µM
same,GI50,PC-3,21.6 µM (inactive)
same,GI50,UACC-257,17.5 µM (inactive)
same,GI50,RPMI-8226,14.9 µM (inactive)
same,GI50,RXF 393,13.1 µM (inactive)
same,GI50,OVCAR-8,16.9 µM (inactive)
same,GI50,COLO 205,17.6 µM (inactive)
same,GI50,MDA-MB-435,17.7 µM (inactive)
same,GI50,NCI-H226,18.9 µM (inactive)
same,GI50,SN12C,21.1 µM (inactive)
same,GI50,CCRF-CEM,12.5 µM (inactive)
same,GI50,OVCAR-5,17.9 µM (inactive)
same,GI50,NCI-H460,22.3 µM (inactive)
same,GI50,SW-620,21.8 µM (inactive)
same,GI50,HL-60,15.8 µM (inactive)
same,GI50,EKVX,22.9 µM (inactive)
same,GI50,SF-295,36.1 µM (inactive)
same,GI50,SF-539,19.7 µM (inactive)
same,GI50,UO-31,18.3 µM (inactive)
same,GI50,UACC-62,3.87 µM (inactive)
same,GI50,SK-MEL-5,16.3 µM (inactive)
same,GI50,OVCAR-3,11.7 µM (inactive)
same,GI50,HT-29,25.8 µM (inactive)
same,GI50,SK-MEL-28,15.9 µM (inactive)
same,GI50,KM12,21 µM (inactive)
same,GI50,A549,16.6 µM (inactive)
same,GI50,LOX IMVI,14.1 µM (inactive)
same,GI50,ACHN,16.3 µM (inactive)
same,GI50,SK-OV-3,39.6 µM (inactive)
same,GI50,T47D,18.9 µM (inactive)
same,GI50,U-251,22.9 µM (inactive)
same,GI50,SR,17.8 µM (inactive)
same,GI50,Malme-3M,10.2 µM (inactive)
CC(=O)CC(O)(C(F)(F)Cl)C(F)(Cl)Cl (configuration not stated),GI50,K562,> 10 µM (inactive)
same,GI50,SF-268,> 10 µM (inactive)
same,GI50,NCI-H23,> 10 µM (inactive)
same,GI50,CAKI-1,> 10 µM (inactive)
same,GI50,MDA-MB-231,> 10 µM (inactive)
same,GI50,NCI/ADR-RES,> 10 µM (inactive)
same,GI50,DU-145,> 10 µM (inactive)
same,GI50,HOP-62,> 10 µM (inactive)
same,GI50,NCI-H522,> 10 µM (inactive)
same,GI50,HCC 2998,> 10 µM (inactive)
same,GI50,SNB-19,> 10 µM (inactive)
same,GI50,SNB-75,> 10 µM (inactive)
same,GI50,SK-MEL-2,> 10 µM (inactive)
same,GI50,MDA-N,> 10 µM (inactive)
same,GI50,786-0,> 10 µM (inactive)
same,GI50,HCT-116,> 10 µM (inactive)
same,GI50,HOP-92,> 10 µM (inactive)
same,GI50,A498,> 10 µM (inactive)
same,GI50,Hs-578T,> 10 µM (inactive)
same,GI50,OVCAR-4,> 10 µM (inactive)
same,GI50,TK-10,> 10 µM (inactive)
same,GI50,MCF7,> 10 µM (inactive)
same,GI50,IGROV-1,> 10 µM (inactive)
same,GI50,M14,> 10 µM (inactive)
same,GI50,HCT-15,> 10 µM
same,GI50,PC-3,> 10 µM (inactive)
same,GI50,UACC-257,> 10 µM (inactive)
same,GI50,RXF 393,> 10 µM (inactive)
same,GI50,OVCAR-8,> 10 µM (inactive)
same,GI50,COLO 205,> 10 µM (inactive)
same,GI50,MDA-MB-435,> 10 µM (inactive)
same,GI50,NCI-H226,> 10 µM (inactive)
same,GI50,SN12C,> 10 µM (inactive)
same,GI50,CCRF-CEM,> 10 µM (inactive)
same,GI50,NCI-H460,> 10 µM (inactive)
same,GI50,SW-620,> 10 µM (inactive)
same,GI50,HL-60,> 10 µM (inactive)
same,GI50,EKVX,> 10 µM (inactive)
same,GI50,SF-295,> 10 µM (inactive)
same,GI50,SF-539,> 10 µM (inactive)
same,GI50,UO-31,> 10 µM (inactive)
same,GI50,UACC-62,> 10 µM (inactive)
same,GI50,SK-MEL-5,> 10 µM (inactive)
same,GI50,OVCAR-3,> 10 µM (inactive)
same,GI50,HT-29,> 10 µM (inactive)
same,GI50,SK-MEL-28,> 10 µM (inactive)
same,GI50,KM12,> 10 µM (inactive)
same,GI50,A549,> 10 µM (inactive)
same,GI50,LOX IMVI,> 10 µM (inactive)
same,GI50,ACHN,> 10 µM (inactive)
same,GI50,SK-OV-3,> 10 µM (inactive)
same,GI50,T47D,> 10 µM (inactive)
same,GI50,U-251,> 10 µM (inactive)
same,GI50,Malme-3M,> 10 µM (inactive)
COC(=O)C(Cc1c[nH]c2ccccc12)NC(=O)C(Cc1c[nH]c2ccccc12)NC(=O)C(Cc1c[nH]c2ccccc12)NC(=O)C(Cc1c[nH]c2ccccc12)NC(=O)C(Cc1c[nH]c2ccccc12)NC(=O)OC(C)(C)C (configuration not stated) (Boc-WWWWW-OMe; configuration not given here),GI50,K562,36.8 µM (inactive)
same,GI50,SF-268,71 µM (inactive)
same,GI50,NCI-H23,58.1 µM (inactive)
same,GI50,CAKI-1,> 100 µM (inactive)
same,GI50,MDA-MB-231,> 100 µM (inactive)
same,GI50,DU-145,33.4 µM (inactive)
same,GI50,HOP-62,> 100 µM (inactive)
same,GI50,NCI-H522,46 µM (inactive)
same,GI50,HCC 2998,> 100 µM (inactive)
same,GI50,MOLT-4,19.6 µM (inactive)
same,GI50,SNB-19,39 µM (inactive)
same,GI50,SNB-75,36.5 µM (inactive)
same,GI50,SK-MEL-2,45.2 µM (inactive)
same,GI50,MDA-N,92 µM (inactive)
same,GI50,786-0,60 µM (inactive)
same,GI50,HCT-116,29.7 µM (inactive)
same,GI50,OVCAR-4,> 100 µM (inactive)
same,GI50,TK-10,> 100 µM (inactive)
same,GI50,MCF7,84.1 µM (inactive)
same,GI50,IGROV-1,30 µM (inactive)
same,GI50,M14,33.3 µM (inactive)
same,GI50,HCT-15,> 100 µM
same,GI50,PC-3,> 100 µM (inactive)
same,GI50,UACC-257,> 100 µM (inactive)
same,GI50,RPMI-8226,26.2 µM (inactive)
same,GI50,OVCAR-8,> 100 µM (inactive)
same,GI50,MDA-MB-435,> 100 µM (inactive)
same,GI50,BT-549,91.8 µM (inactive)
same,GI50,NCI-H226,42 µM (inactive)
same,GI50,SN12C,> 100 µM (inactive)
same,GI50,CCRF-CEM,74 µM (inactive)
same,GI50,OVCAR-5,> 100 µM (inactive)
same,GI50,NCI-H460,84.1 µM (inactive)
same,GI50,SW-620,> 100 µM (inactive)
same,GI50,HL-60,33 µM (inactive)
same,GI50,UO-31,36.6 µM (inactive)
same,GI50,UACC-62,26.5 µM (inactive)
same,GI50,SK-MEL-5,17.5 µM (inactive)
same,GI50,OVCAR-3,> 100 µM (inactive)
same,GI50,HT-29,> 100 µM (inactive)
same,GI50,SK-MEL-28,55.7 µM (inactive)
same,GI50,A549,67 µM (inactive)
same,GI50,LOX IMVI,67.6 µM (inactive)
same,GI50,ACHN,74 µM (inactive)
same,GI50,T47D,10.7 µM (inactive)
same,GI50,U-251,65.9 µM (inactive)
same,GI50,SR,32.4 µM (inactive)
same,GI50,Malme-3M,94.2 µM (inactive)
